# Patent publication US8999970B2, “Administration of an anti-obesity compound to individuals with renal impairment” (Arena Pharmaceuticals, Inc., priority 2010, dated 2015)
# Values joined by “and” are separate entries in the source; they are usually repeats but may differ in a detail not shown here. Equal entries are not always repeated.
# Assay: Clinical trial APD356-016: plasma and urine pharmacokinetics of lorcaserin, M1 and M5 after a 10 mg dose in subjects with renal impairment
# Conditions: Severe Renal Impairment Not Receiving Dialysis; for Plasma Concentration of HSO3-APD356 Metabolite, Max: group Max; for Plasma Concentration of HSO3-APD356 Metabolite, Max / Plasma Concentration of HSO3-APD356 Metabolite, Mean / Plasma Concentration of HSO3-APD356 Metabolite, Median / Plasma Concentration of HSO3-APD356 Metabolite, Min: N 8; for Plasma Concentration of HSO3-APD356 Metabolite, Mean: group Mean; for Plasma Concentration of HSO3-APD356 Metabolite, Median: group Median; for Plasma Concentration of HSO3-APD356 Metabolite, Min: group Min; for Plasma Concentration of HSO3-APD356 Metabolite: individual subject
# Protocol: The interaction of renal insufficiency with the pharmacokinetics, tolerability and safety of lorcaserin were evaluated in a formal PK study in subjects with renal impairment and in the populations studied in phase 2 and phase 3 clinical studies.
# The pharmacokinetic properties of lorcaserin in subjects with varying degrees of renal impairment were evaluated in clinical trial APD356-016. At the time of study conduct and analysis, subjects were assigned to renal impairment groups based on creatinine clearance calculated using IDEAL body weight (Table 1). This calculation was used to avoid overestimation of creatinine clearance due to the excess body weight (overweight and obese subjects were enrolled in the trial). Summaries of pharmacokinetic properties by group assignment using creatinine clearance calculated using ACTUAL body weights are also provided in the sections that follow.
# The FDA expects a reasonable margin between anticipated exposures and exposures that may produce toxicity. A reasonable margin can vary depending on the expected toxicity, but generally is an order of magnitude (10 times), but can sometimes be less for mild toxicity.
# Table 13. Summary of Plasma Concentrations (ng/mL) of HSO3-APD356 Metabolite over Time by Group: Severe Renal Impairment Not Receiving Dialysis (see Table 13 next page)
# Subject number 3140-505 was on dialysis and grouped in the end stage renal disease group.
smiles,measurement,setting,value
C[C@H]1CN(S(=O)(=O)O)CCc2ccc(Cl)cc21 [HSO3-APD356 Metabolite],"Plasma Concentration of HSO3-APD356 Metabolite, Max",Day 1 0.5 h,182 ng/mL
same,"Plasma Concentration of HSO3-APD356 Metabolite, Max",Day 1 1 h,319 ng/mL
same,"Plasma Concentration of HSO3-APD356 Metabolite, Max",Day 1 2 h,489 ng/mL
same,"Plasma Concentration of HSO3-APD356 Metabolite, Max",Day 1 3 h,468 ng/mL
same,"Plasma Concentration of HSO3-APD356 Metabolite, Max",Day 1 4 h,542 ng/mL
same,"Plasma Concentration of HSO3-APD356 Metabolite, Max",Day 1 6 h,445 ng/mL
same,"Plasma Concentration of HSO3-APD356 Metabolite, Max",Day 1 8 h,473 ng/mL
same,"Plasma Concentration of HSO3-APD356 Metabolite, Max",Day 1 12 h,439 ng/mL
same,"Plasma Concentration of HSO3-APD356 Metabolite, Max",Day 1 16 h,410 ng/mL
same,"Plasma Concentration of HSO3-APD356 Metabolite, Max",Day 1 Predose,9.00 ng/mL
same,"Plasma Concentration of HSO3-APD356 Metabolite, Max",Day 2 24 h,406 ng/mL
same,"Plasma Concentration of HSO3-APD356 Metabolite, Max",Day 2 36 h,336 ng/mL
same,"Plasma Concentration of HSO3-APD356 Metabolite, Max",Day 3 48 h,292 ng/mL
same,"Plasma Concentration of HSO3-APD356 Metabolite, Max",Day 4 72 h,248 ng/mL
same,"Plasma Concentration of HSO3-APD356 Metabolite, Max",Day 5 96 h,225 ng/mL
same,"Plasma Concentration of HSO3-APD356 Metabolite, Max",Day 6 120 h,212 ng/mL
same,"Plasma Concentration of HSO3-APD356 Metabolite, Mean",Day 1 0.5 h,25.7 ng/mL
same,"Plasma Concentration of HSO3-APD356 Metabolite, Mean",Day 1 1 h,50.6 ng/mL
same,"Plasma Concentration of HSO3-APD356 Metabolite, Mean",Day 1 2 h,83.2 ng/mL
same,"Plasma Concentration of HSO3-APD356 Metabolite, Mean",Day 1 3 h,86.8 ng/mL
same,"Plasma Concentration of HSO3-APD356 Metabolite, Mean",Day 1 4 h,99.5 ng/mL
same,"Plasma Concentration of HSO3-APD356 Metabolite, Mean",Day 1 6 h,86.7 ng/mL
same,"Plasma Concentration of HSO3-APD356 Metabolite, Mean",Day 1 8 h,88.9 ng/mL
same,"Plasma Concentration of HSO3-APD356 Metabolite, Mean",Day 1 12 h,84.3 ng/mL
same,"Plasma Concentration of HSO3-APD356 Metabolite, Mean",Day 1 16 h,76.8 ng/mL
same,"Plasma Concentration of HSO3-APD356 Metabolite, Mean",Day 1 Predose,1.13 ng/mL
same,"Plasma Concentration of HSO3-APD356 Metabolite, Mean",Day 2 24 h,84.4 ng/mL
same,"Plasma Concentration of HSO3-APD356 Metabolite, Mean",Day 2 36 h,73.9 ng/mL
same,"Plasma Concentration of HSO3-APD356 Metabolite, Mean",Day 3 48 h,68.1 ng/mL
same,"Plasma Concentration of HSO3-APD356 Metabolite, Mean",Day 4 72 h,58.3 ng/mL
same,"Plasma Concentration of HSO3-APD356 Metabolite, Mean",Day 5 96 h,53.8 ng/mL
same,"Plasma Concentration of HSO3-APD356 Metabolite, Mean",Day 6 120 h,49.2 ng/mL
same,"Plasma Concentration of HSO3-APD356 Metabolite, Median",Day 1 0.5 h,1.33 ng/mL
same,"Plasma Concentration of HSO3-APD356 Metabolite, Median",Day 1 1 h,12.6 ng/mL
same,"Plasma Concentration of HSO3-APD356 Metabolite, Median",Day 1 2 h,24.5 ng/mL
same,"Plasma Concentration of HSO3-APD356 Metabolite, Median",Day 1 3 h,27.5 ng/mL
same,"Plasma Concentration of HSO3-APD356 Metabolite, Median",Day 1 4 h,31.6 ng/mL
same,"Plasma Concentration of HSO3-APD356 Metabolite, Median",Day 1 6 h,32.8 ng/mL
same,"Plasma Concentration of HSO3-APD356 Metabolite, Median",Day 1 8 h,29.5 ng/mL
same,"Plasma Concentration of HSO3-APD356 Metabolite, Median",Day 1 12 h,28.9 ng/mL
same,"Plasma Concentration of HSO3-APD356 Metabolite, Median",Day 1 16 h,28.1 ng/mL
same,"Plasma Concentration of HSO3-APD356 Metabolite, Median",Day 1 Predose,0.00 ng/mL
same,"Plasma Concentration of HSO3-APD356 Metabolite, Median",Day 2 24 h,32.5 ng/mL
same,"Plasma Concentration of HSO3-APD356 Metabolite, Median",Day 2 36 h,35.5 ng/mL
same,"Plasma Concentration of HSO3-APD356 Metabolite, Median",Day 3 48 h,33.8 ng/mL
same,"Plasma Concentration of HSO3-APD356 Metabolite, Median",Day 4 72 h,31.6 ng/mL
same,"Plasma Concentration of HSO3-APD356 Metabolite, Median",Day 5 96 h,31.3 ng/mL
same,"Plasma Concentration of HSO3-APD356 Metabolite, Median",Day 6 120 h,27.5 ng/mL
same,"Plasma Concentration of HSO3-APD356 Metabolite, Min",Day 1 0.5 h,0.00 ng/mL
same,"Plasma Concentration of HSO3-APD356 Metabolite, Min",Day 1 1 h,0.00 ng/mL
same,"Plasma Concentration of HSO3-APD356 Metabolite, Min",Day 1 2 h,6.08 ng/mL
same,"Plasma Concentration of HSO3-APD356 Metabolite, Min",Day 1 3 h,17.6 ng/mL
same,"Plasma Concentration of HSO3-APD356 Metabolite, Min",Day 1 4 h,25.4 ng/mL
same,"Plasma Concentration of HSO3-APD356 Metabolite, Min",Day 1 6 h,26.1 ng/mL
same,"Plasma Concentration of HSO3-APD356 Metabolite, Min",Day 1 8 h,25.8 ng/mL
same,"Plasma Concentration of HSO3-APD356 Metabolite, Min",Day 1 12 h,25.4 ng/mL
same,"Plasma Concentration of HSO3-APD356 Metabolite, Min",Day 1 16 h,18.0 ng/mL
same,"Plasma Concentration of HSO3-APD356 Metabolite, Min",Day 1 Predose,0.00 ng/mL
same,"Plasma Concentration of HSO3-APD356 Metabolite, Min",Day 2 24 h,27.1 ng/mL
same,"Plasma Concentration of HSO3-APD356 Metabolite, Min",Day 2 36 h,27.8 ng/mL
same,"Plasma Concentration of HSO3-APD356 Metabolite, Min",Day 3 48 h,25.8 ng/mL
same,"Plasma Concentration of HSO3-APD356 Metabolite, Min",Day 4 72 h,19.7 ng/mL
same,"Plasma Concentration of HSO3-APD356 Metabolite, Min",Day 5 96 h,15.1 ng/mL
same,"Plasma Concentration of HSO3-APD356 Metabolite, Min",Day 6 120 h,12.3 ng/mL
same,Plasma Concentration of HSO3-APD356 Metabolite,Day 1 0.5 h,182 ng/mL and 2.66 ng/mL and 8.54 ng/mL and 0.00 ng/mL (2×) and 12.2 ng/mL
same,Plasma Concentration of HSO3-APD356 Metabolite,Day 1 1 h,319 ng/mL and 22.8 ng/mL and 18.0 ng/mL and 0.00 ng/mL and 31.4 ng/mL and 4.30 ng/mL
same,Plasma Concentration of HSO3-APD356 Metabolite,Day 1 2 h,489 ng/mL and 42.2 ng/mL and 25.1 ng/mL and 6.08 ng/mL and 53.2 ng/mL and 13.3 ng/mL
same,Plasma Concentration of HSO3-APD356 Metabolite,Day 1 3 h,468 ng/mL and 52.4 ng/mL and 26.5 ng/mL and 17.6 ng/mL and 55.6 ng/mL and 20.9 ng/mL
same,Plasma Concentration of HSO3-APD356 Metabolite,Day 1 4 h,542 ng/mL and 53.3 ng/mL and 28.2 ng/mL and 28.6 ng/mL and 55.1 ng/mL and 25.4 ng/mL
same,Plasma Concentration of HSO3-APD356 Metabolite,Day 1 6 h,445 ng/mL and 51.9 ng/mL and 32.2 ng/mL and 29.8 ng/mL and 46.5 ng/mL and 26.1 ng/mL
same,Plasma Concentration of HSO3-APD356 Metabolite,Day 1 8 h,473 ng/mL and 49.7 ng/mL and 27.8 ng/mL and 29.2 ng/mL and 50.4 ng/mL and 25.8 ng/mL
same,Plasma Concentration of HSO3-APD356 Metabolite,Day 1 12 h,439 ng/mL and 45.9 ng/mL and 27.2 ng/mL and 27.3 ng/mL and 52.2 ng/mL and 25.4 ng/mL
same,Plasma Concentration of HSO3-APD356 Metabolite,Day 1 16 h,410 ng/mL and 46.9 ng/mL and 28.1 ng/mL and 27.5 ng/mL and 18.0 ng/mL and 28.0 ng/mL and 30.6 ng/mL
same,Plasma Concentration of HSO3-APD356 Metabolite,Day 1 Predose,0.00 ng/mL (6×) and 9.00 ng/mL
same,Plasma Concentration of HSO3-APD356 Metabolite,Day 2 24 h,406 ng/mL and 51.1 ng/mL and 33.0 ng/mL and 31.9 ng/mL and 62.4 ng/mL and 31.6 ng/mL and 32.0 ng/mL
same,Plasma Concentration of HSO3-APD356 Metabolite,Day 2 36 h,336 ng/mL and 45.5 ng/mL and 40.4 ng/mL and 30.6 ng/mL (2×) and 52.2 ng/mL and 28.4 ng/mL
same,Plasma Concentration of HSO3-APD356 Metabolite,Day 3 48 h,292 ng/mL and 47.2 ng/mL and 34.3 ng/mL and 31.0 ng/mL and 54.2 ng/mL and 33.3 ng/mL
same,Plasma Concentration of HSO3-APD356 Metabolite,Day 4 72 h,248 ng/mL and 40.2 ng/mL and 33.0 ng/mL and 27.9 ng/mL and 46.2 ng/mL and 30.2 ng/mL
same,Plasma Concentration of HSO3-APD356 Metabolite,Day 5 96 h,225 ng/mL and 36.0 ng/mL and 30.2 ng/mL and 28.5 ng/mL and 43.8 ng/mL and 32.3 ng/mL
same,Plasma Concentration of HSO3-APD356 Metabolite,Day 6 120 h,212 ng/mL and 30.4 ng/mL and 26.3 ng/mL and 25.2 ng/mL and 40.1 ng/mL and 28.6 ng/mL
